From ChEMBL document CHEMBL1681750, “Cofactor-type inhibitors of inosine monophosphate dehydrogenase via modular approach: targeting the pyrophosphate binding sub-domain” (Bioorg Med Chem, 2011)

Columns and labels:
[1] = biological target: Inosine-5'-monophosphate dehydrogenase 1 (Homo sapiens, UniProt P20839); experiment: Inhibition of human IMPDH1 by Spectrophotometry
K562 = experiment: Antiproliferative activity against human K562 cells after 72 hrs by MTS assay; format: functional, cell-based; details: K562, 72 h

Sequence of Inosine-5'-monophosphate dehydrogenase 1 (P20839 whole entry): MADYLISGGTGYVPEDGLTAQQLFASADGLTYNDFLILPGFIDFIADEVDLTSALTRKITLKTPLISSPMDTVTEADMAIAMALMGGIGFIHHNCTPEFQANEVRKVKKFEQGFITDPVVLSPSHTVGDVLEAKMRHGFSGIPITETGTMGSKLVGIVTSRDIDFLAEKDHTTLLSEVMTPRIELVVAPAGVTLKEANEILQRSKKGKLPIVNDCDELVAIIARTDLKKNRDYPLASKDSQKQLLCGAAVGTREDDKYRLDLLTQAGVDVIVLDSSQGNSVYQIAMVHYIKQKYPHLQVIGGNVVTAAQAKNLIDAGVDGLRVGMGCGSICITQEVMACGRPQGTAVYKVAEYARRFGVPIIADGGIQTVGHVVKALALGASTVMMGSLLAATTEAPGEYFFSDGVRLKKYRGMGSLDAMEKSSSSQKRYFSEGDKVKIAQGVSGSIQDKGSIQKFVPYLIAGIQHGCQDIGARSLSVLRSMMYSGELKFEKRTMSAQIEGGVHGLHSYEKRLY

| SMILES | Ki [1] [µM] | IC50 (K562) [µM] |
| --- | --- | --- |
| NC(=O)c1csc([C@@H]2O[C@H](CNS(=O)(=O)CS(=O)(=O)NC[C@@H]3O[C@H](n4cnc5c(N)ncnc54)[C@@H](O)[C@H]3O)[C@@H](O)[C@H]2O)n1 | 23.6 | > 100 |
| NC(=O)c1csc([C@@H]2O[C@H](COP(=O)(O)CC(=O)NC[C@@H]3O[C@H](n4cnc5c(N)ncnc54)[C@@H](O)[C@H]3O)[C@@H](O)[C@H]2O)n1 | 14.2 | > 100 |

Molecules with a lower Ki [1], results first:

| Ki [1] [µM] | IC50 (K562) [µM] | SMILES |
| --- | --- | --- |
| 5.55 | > 100 | COc1c(C)c2c(c(O)c1CCOP(=O)(O)CCP(=O)(O)O)C(=O)OC2 [MYCOPHENOLIC ETHYLENEBIS] |
| 0.013 | 4.7 | CCc1nc(N)c2ncn([C@H]3O[C@@H](COP(=O)(O)C(F)(F)P(=O)(O)OC[C@H]4O[C@@H](c5nc(C(N)=O)cs5)[C@H](O)[C@@H]4O)[C@H](O)[C@@H]3O)c2n1 |
| 0.001 | – | CCc1nc(N)c2ncn([C@H]3O[C@@H](COP(=O)(O)OP(=O)(O)OC[C@H]4O[C@@H](c5nc(C(N)=O)cs5)[C@H](O)[C@@H]4O)[C@H](O)[C@@H]3O)c2n1 |
